# Assay results taken from patent US20140079836A1, “METHODS AND COMPOSITIONS FOR ALTERING HEALTH, WELLBEING, AND LIFESPAN” (LifeSpan Extension, LLC, priority 2008, published 2014).
# Tested on: Custom Array II Genes
# Assay: Custom Array II gene expression, antioxidant alone or + UVB
# Assay type: cell-based
compound,measurement,setting,value
"COC1=C(OC)C(=O)C(CCCCCCCCCCO)=C(C)C1=O [Idebenone, 6-(10-hydroxydecyl)-2,3-dimethoxy-5-methyl-1,4-benzoquin-one]",ACE (NM_000789) Expression,+ UVB,−1.1
same,ACTB (NM_001101) Expression,+ UVB,−1.1
same,APOE (NM_000041) Expression,+ UVB,−1.2
same,BAX (NM_004324) Expression,+ UVB,1.3
same,BCL2 (NM_000633) Expression,+ UVB,1.6
same,BCL2L1 (NM_138578) Expression,+ UVB,1.0
same,BMP2 (NM_001200) Expression,+ UVB,−1.7
same,CASP2 (NM_032982) Expression,+ UVB,−1.3
same,CASP9 (NM_001229) Expression,+ UVB,1.0
same,CCL4L1 (NM_001001435) Expression,+ UVB,1.2
same,CDKN2A (NM_000077) Expression,+ UVB,−1.0
same,CLK1 (NM_004071) Expression,+ UVB,−1.1
same,COL1A1 (NM_000088) Expression,+ UVB,−1.0
same,COL3A1 (NM_000090) Expression,+ UVB,−1.2
same,COX1 (NP_536845) Expression,+ UVB,1.5
same,CREBBP (NM_004380) Expression,+ UVB,−1.1
same,CRP (NM_000567) Expression,+ UVB,1.0
same,CYP19A1 (NM_000103) Expression,+ UVB,1.0
same,DDC (NM_000790) Expression,+ UVB,1.0
same,DUSP2 (NM_004418) Expression,+ UVB,1.1
same,EGF (NM_001963) Expression,+ UVB,1.0
same,EGR2 (NM_000399) Expression,+ UVB,1.7
same,FOS (NM_005252) Expression,+ UVB,−1.4
same,FOXO3 (NM_001455) Expression,+ UVB,−1.3
same,GADPH (NM_002046) Expression,+ UVB,−1.2
same,GCH1 (NM_000161) Expression,+ UVB,−1.7
same,GH1 (NM_000515) Expression,+ UVB,1.3
same,GPX1 (NM_000581) Expression,+ UVB,−1.1
same,HBEGF (NM_001945) Expression,+ UVB,1.8
same,HGDC (SA_00105) Expression,+ UVB,1.1
same,HLA-DRA (NM_019111) Expression,+ UVB,1.0
same,HMOX1 (NM_002133) Expression,+ UVB,1.0
same,HPRT1 (NM_000194) Expression,+ UVB,1.3
same,HSPA1A (NM_005345) Expression,+ UVB,−1.3
same,HSPA1B (NM_005346) Expression,+ UVB,−1.3
same,HSPA1L (NM_005527) Expression,+ UVB,−1.1
same,HSPA6 (NM_002155) Expression,+ UVB,−1.8
same,IFI44 (NM_006417) Expression,+ UVB,1.0
same,IGF1 (NM_000618) Expression,+ UVB,1.1
same,IGF2 (NM_000612) Expression,+ UVB,1.0
same,IL1A (NM_000575) Expression,+ UVB,1.0
same,IL6 (NM_000600) Expression,+ UVB,1.5
same,IL8 (NM_000584) Expression,+ UVB,1.0
same,IL10 (NM_000572) Expression,+ UVB,1.1
same,IL11 (NM_000641) Expression,+ UVB,1.1
same,IL33 (NM_033439) Expression,+ UVB,2.3
same,IMMP1L (NM_144981) Expression,+ UVB,1.2
same,JUN (NM_002228) Expression,+ UVB,−1.1
same,KIT (NM_000222) Expression,+ UVB,1.4
same,KL (NM_004795) Expression,+ UVB,1.0
same,KRAS (NM_004985) Expression,+ UVB,1.0
same,MAPK14 (NM_001315) Expression,+ UVB,−1.4
same,MMP1 (NM_002421) Expression,+ UVB,1.0
same,NADSYN1 (NM_018161) Expression,+ UVB,−1.1
same,NEIL1 (NM_024608) Expression,+ UVB,1.0
same,NFKB1 (NM_003998) Expression,+ UVB,−1.1
same,NOS1 (NM_000620) Expression,+ UVB,1.2
same,NOS2 (NM_000625) Expression,+ UVB,1.0
same,NOS3 (NM_000603) Expression,+ UVB,−1.0
same,PARP1 (NM_001618) Expression,+ UVB,1.0
same,PARP2 (NM_005484) Expression,+ UVB,1.2
same,PARP3 (NM_005485) Expression,+ UVB,1.1
same,PARP4 (NM_006437) Expression,+ UVB,4.7
same,PARP9 (NM_031458) Expression,+ UVB,−1.1
same,PDGFRL (NM_006207) Expression,+ UVB,1.2
same,POT1 (NM_015450) Expression,+ UVB,1.2
same,PPARG (NM_015869) Expression,+ UVB,−1.2
same,PPARGC1 (NM_013261) Expression,+ UVB,−1.2
same,PPC (SA_00103) Expression,+ UVB,1.0
same,PTGS2 (NM_000963) Expression,+ UVB,1.3
same,RAP1A (NM_002884) Expression,+ UVB,−1.2
same,RTC (SA_00104) Expression,+ UVB,1.2
same,S100A7 (NM_002963) Expression,+ UVB,1.3
same,SERPINB (NM_002575) Expression,+ UVB,1.0
same,SHC1 (NM_003029) Expression,+ UVB,−1.1
same,SIRT1 (NM_012238) Expression,+ UVB,1.1
same,SIRT2 (NM_012237) Expression,+ UVB,−1.1
same,SIRT3 (NM_012239) Expression,+ UVB,−1.2
same,SIRT4 (NM_012240) Expression,+ UVB,1.0
same,SOD1 (NM_000454) Expression,+ UVB,−1.1
same,SOD2 (NM_000636) Expression,+ UVB,1.0
same,TEP1 (NM_007110) Expression,+ UVB,1.1
same,TERF2 (NM_005652) Expression,+ UVB,−1.1
same,TERT (NM_198255) Expression,+ UVB,−1.3
same,TGFB1 (NM_000660) Expression,+ UVB,−1.2
same,TIMM22 (NM_013337) Expression,+ UVB,−1.1
same,TIMP3 (NM_000362) Expression,+ UVB,−1.3
same,TINF2 (NM_012461) Expression,+ UVB,1.1
same,TNF (NM_000594) Expression,+ UVB,−2.6
same,TOMM40 (NM_006114) Expression,+ UVB,−1.8
same,TP53 (NM_000546) Expression,+ UVB,−1.3
same,TPP1 (NM_000391) Expression,+ UVB,1.0
same,UBE2S (NM_014501) Expression,+ UVB,−1.3
same,VEGFA (NM_003376) Expression,+ UVB,−1.3
same,ACE (NM_000789) Expression,Alone,−1.0
same,ACTB (NM_001101) Expression,Alone,1.0
same,APOE (NM_000041) Expression,Alone,1.0
same,BAX (NM_004324) Expression,Alone,1.3
same,BCL2 (NM_000633) Expression,Alone,1.2
same,BCL2L1 (NM_138578) Expression,Alone,1.0
same,BMP2 (NM_001200) Expression,Alone,1.1
same,CASP2 (NM_032982) Expression,Alone,1.0
same,CASP9 (NM_001229) Expression,Alone,−1.0
same,CCL4L1 (NM_001001435) Expression,Alone,1.0
same,CDKN2A (NM_000077) Expression,Alone,1.0
same,CLK1 (NM_004071) Expression,Alone,1.0
same,COL1A1 (NM_000088) Expression,Alone,1.0
same,COL3A1 (NM_000090) Expression,Alone,−1.1
same,COX1 (NP_536845) Expression,Alone,1.0
same,CREBBP (NM_004380) Expression,Alone,1.0
same,CRP (NM_000567) Expression,Alone,−1.0
same,CYP19A1 (NM_000103) Expression,Alone,1.4
same,DDC (NM_000790) Expression,Alone,1.0
same,DUSP2 (NM_004418) Expression,Alone,1.0
same,EGF (NM_001963) Expression,Alone,1.0
same,EGR2 (NM_000399) Expression,Alone,1.0
same,FOS (NM_005252) Expression,Alone,1.0
same,FOXO3 (NM_001455) Expression,Alone,1.0
same,GADPH (NM_002046) Expression,Alone,1.3
same,GCH1 (NM_000161) Expression,Alone,1.0
same,GH1 (NM_000515) Expression,Alone,1.0
same,GPX1 (NM_000581) Expression,Alone,1.0
same,HBEGF (NM_001945) Expression,Alone,1.0
same,HGDC (SA_00105) Expression,Alone,1.2
same,HLA-DRA (NM_019111) Expression,Alone,1.0
same,HMOX1 (NM_002133) Expression,Alone,−1.0
same,HPRT1 (NM_000194) Expression,Alone,1.2
same,HSPA1A (NM_005345) Expression,Alone,−1.0
same,HSPA1B (NM_005346) Expression,Alone,−1.0
same,HSPA1L (NM_005527) Expression,Alone,1.0
same,HSPA6 (NM_002155) Expression,Alone,−1.1
same,IFI44 (NM_006417) Expression,Alone,−1.6
same,IGF1 (NM_000618) Expression,Alone,1.1
same,IGF2 (NM_000612) Expression,Alone,1.0
same,IL1A (NM_000575) Expression,Alone,−1.0
same,IL6 (NM_000600) Expression,Alone,−1.0
same,IL8 (NM_000584) Expression,Alone,−1.2
same,IL10 (NM_000572) Expression,Alone,1.1
same,IL11 (NM_000641) Expression,Alone,−1.1
same,IL33 (NM_033439) Expression,Alone,−1.1
same,IMMP1L (NM_144981) Expression,Alone,−1.0
same,JUN (NM_002228) Expression,Alone,1.0
same,KIT (NM_000222) Expression,Alone,−1.3
same,KL (NM_004795) Expression,Alone,1.0
same,KRAS (NM_004985) Expression,Alone,−1.4
same,MAPK14 (NM_001315) Expression,Alone,1.0
same,MMP1 (NM_002421) Expression,Alone,1.0
same,NADSYN1 (NM_018161) Expression,Alone,1.2
same,NEIL1 (NM_024608) Expression,Alone,1.5
same,NFKB1 (NM_003998) Expression,Alone,−1.5
same,NOS1 (NM_000620) Expression,Alone,1.9
same,NOS2 (NM_000625) Expression,Alone,1.1
same,NOS3 (NM_000603) Expression,Alone,1.0
same,PARP1 (NM_001618) Expression,Alone,1.3
same,PARP2 (NM_005484) Expression,Alone,1.3
same,PARP3 (NM_005485) Expression,Alone,−1.0
same,PARP4 (NM_006437) Expression,Alone,1.1
same,PARP9 (NM_031458) Expression,Alone,1.0
same,PDGFRL (NM_006207) Expression,Alone,−1.1
same,POT1 (NM_015450) Expression,Alone,−1.0
same,PPARG (NM_015869) Expression,Alone,−1.0
same,PPARGC1 (NM_013261) Expression,Alone,−1.0
same,PPC (SA_00103) Expression,Alone,1.0
same,PTGS2 (NM_000963) Expression,Alone,−1.2
same,RAP1A (NM_002884) Expression,Alone,1.3
same,RTC (SA_00104) Expression,Alone,1.1
same,S100A7 (NM_002963) Expression,Alone,1.1
same,SERPINB (NM_002575) Expression,Alone,1.1
same,SHC1 (NM_003029) Expression,Alone,−1.4
same,SIRT1 (NM_012238) Expression,Alone,−1.2
same,SIRT2 (NM_012237) Expression,Alone,−1.0
same,SIRT3 (NM_012239) Expression,Alone,−1.1
same,SIRT4 (NM_012240) Expression,Alone,1.1
same,SOD1 (NM_000454) Expression,Alone,−1.0
same,SOD2 (NM_000636) Expression,Alone,−1.2
same,TEP1 (NM_007110) Expression,Alone,1.1
same,TERF2 (NM_005652) Expression,Alone,1.0
same,TERT (NM_198255) Expression,Alone,1.1
same,TGFB1 (NM_000660) Expression,Alone,−1.1
same,TIMM22 (NM_013337) Expression,Alone,1.1
same,TIMP3 (NM_000362) Expression,Alone,1.2
same,TINF2 (NM_012461) Expression,Alone,1.1
same,TNF (NM_000594) Expression,Alone,−1.1
same,TOMM40 (NM_006114) Expression,Alone,1.0
same,TP53 (NM_000546) Expression,Alone,−1.1
same,TPP1 (NM_000391) Expression,Alone,−1.1
same,UBE2S (NM_014501) Expression,Alone,1.2
same,VEGFA (NM_003376) Expression,Alone,−1.7
